For 21 molecules, IC50 results are on record in patent publication US8148391B2 (Cephalon, Inc., priority 2006, dated 2012).

The structures appear in SMILES notation. Where only a bound is given, the exact number is not on record here.

In test [1] the target is T1, baculovirus-expressed ALK (Homo sapiens, UniProt Q9UM73).
T1 construct: host or cells: baculovirus expression system
Description: ALK Kinase Assay (ELISA-type, time-resolved fluorescence). The test is classed as biochemical. The conditions noted are these: ALK kinase inhibition, 1 μM ATP; read-out: ALK Activity. Summed up: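 Substrate coating: phospholipase C-γ, 10 μg/mL in TBS. Kinase step: 30 ng/ml ALK, 15 min, 37° C. Detection and analysis: Eu-N1 PT66 antibody, with IC50 fitted as a sigmoidal variable-slope dose-response curve.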

Test [2] has as its target T2, c-Met (cytoplasmic domain) (Homo sapiens, UniProt P08581).
T2 construct: 10 ng/mL c-Met (cytoplasmic domain, Invitrogen Corporation #PV3143); purchased Invitrogen Corporation PV3143
The test can be described thus: c-Met Kinase Assay (same methods as for ALK, with modifications). The format is biochemical. To be noted: c-Met kinase inhibition, 1 μM ATP; read-out: cMet Activity. The method in brief: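 Wells were coated with 10 μg/mL phospholipase C-γ substrate in TBS, and reactions were started with 10 ng/mL c-Met cytoplasmic domain and run at 37° C for 15 minutes. Phosphorylated product was detected with Eu-N1-labeled PT66 antibody. IC50 values came from sigmoidal variable-slope fits of percent inhibition versus log compound concentration.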

T2 sequence (P08581 956-1390 limits assumed): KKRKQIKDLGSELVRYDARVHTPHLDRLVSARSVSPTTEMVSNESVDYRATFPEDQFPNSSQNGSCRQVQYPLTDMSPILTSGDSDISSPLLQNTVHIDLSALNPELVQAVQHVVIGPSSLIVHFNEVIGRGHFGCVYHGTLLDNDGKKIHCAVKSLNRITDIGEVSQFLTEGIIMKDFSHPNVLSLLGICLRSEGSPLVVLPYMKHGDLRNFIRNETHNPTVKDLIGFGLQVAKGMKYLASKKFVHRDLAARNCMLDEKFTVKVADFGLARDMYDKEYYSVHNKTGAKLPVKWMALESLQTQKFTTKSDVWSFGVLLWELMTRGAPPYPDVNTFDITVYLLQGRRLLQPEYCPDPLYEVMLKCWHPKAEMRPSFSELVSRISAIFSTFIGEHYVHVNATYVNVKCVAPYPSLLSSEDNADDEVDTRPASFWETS
T1 sequence (Q9UM73 19-1620): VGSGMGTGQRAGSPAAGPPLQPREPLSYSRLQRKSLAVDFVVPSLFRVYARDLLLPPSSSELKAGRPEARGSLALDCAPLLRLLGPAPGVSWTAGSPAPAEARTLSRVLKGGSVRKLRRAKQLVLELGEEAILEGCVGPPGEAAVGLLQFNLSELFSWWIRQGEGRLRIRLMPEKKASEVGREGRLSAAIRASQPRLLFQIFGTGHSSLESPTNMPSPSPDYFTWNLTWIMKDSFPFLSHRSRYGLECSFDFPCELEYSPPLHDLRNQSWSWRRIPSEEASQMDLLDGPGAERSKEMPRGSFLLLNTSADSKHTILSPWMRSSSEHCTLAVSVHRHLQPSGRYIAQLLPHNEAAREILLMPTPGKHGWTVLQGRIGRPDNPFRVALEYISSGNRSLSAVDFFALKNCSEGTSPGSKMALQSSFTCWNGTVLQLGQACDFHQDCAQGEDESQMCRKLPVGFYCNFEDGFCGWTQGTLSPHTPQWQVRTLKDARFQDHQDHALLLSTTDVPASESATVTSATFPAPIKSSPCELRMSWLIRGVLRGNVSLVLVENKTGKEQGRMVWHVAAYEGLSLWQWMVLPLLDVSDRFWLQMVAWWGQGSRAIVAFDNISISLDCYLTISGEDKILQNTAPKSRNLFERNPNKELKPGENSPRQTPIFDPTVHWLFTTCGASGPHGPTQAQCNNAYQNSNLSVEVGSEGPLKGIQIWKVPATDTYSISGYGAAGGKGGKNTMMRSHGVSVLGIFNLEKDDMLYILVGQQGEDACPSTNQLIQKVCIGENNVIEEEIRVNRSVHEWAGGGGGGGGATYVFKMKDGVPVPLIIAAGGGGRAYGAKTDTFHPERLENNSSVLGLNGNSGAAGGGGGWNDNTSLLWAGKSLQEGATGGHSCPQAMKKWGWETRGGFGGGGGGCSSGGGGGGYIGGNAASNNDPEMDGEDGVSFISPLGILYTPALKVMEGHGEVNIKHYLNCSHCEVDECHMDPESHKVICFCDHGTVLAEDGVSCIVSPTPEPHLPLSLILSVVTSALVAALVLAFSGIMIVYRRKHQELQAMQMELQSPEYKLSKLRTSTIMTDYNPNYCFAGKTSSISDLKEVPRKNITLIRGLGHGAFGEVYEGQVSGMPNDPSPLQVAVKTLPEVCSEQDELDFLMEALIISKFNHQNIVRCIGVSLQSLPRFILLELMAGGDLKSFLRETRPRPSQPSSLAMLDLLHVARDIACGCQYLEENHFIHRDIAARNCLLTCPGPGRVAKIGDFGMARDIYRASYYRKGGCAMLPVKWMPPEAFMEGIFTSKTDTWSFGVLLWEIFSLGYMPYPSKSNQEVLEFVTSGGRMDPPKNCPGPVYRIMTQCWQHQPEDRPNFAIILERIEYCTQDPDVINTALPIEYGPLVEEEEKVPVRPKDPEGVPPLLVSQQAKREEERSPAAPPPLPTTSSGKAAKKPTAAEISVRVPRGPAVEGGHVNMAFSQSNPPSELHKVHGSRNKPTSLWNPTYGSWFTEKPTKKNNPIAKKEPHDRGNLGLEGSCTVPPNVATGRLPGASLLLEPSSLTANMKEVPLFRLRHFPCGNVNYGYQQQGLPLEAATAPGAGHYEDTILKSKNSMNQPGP

In the case of `COc1cc2c(cc1Nc1ncc(Cl)c(Nc3ccccc3S(=O)(=O)N(C)C)n1)CCN(CC(=O)N1CCN(C)CC1)CC2` [Example 1538, 2-(5-Chloro-2-{8-methoxy-3-[2-(4-methyl-piperazin-1-yl)-2-oxo-ethyl]-2,3,4,5-tetrahydro-1H-3-benzazepin-7-ylamino}-pyrimidin-4-ylamino)-N,N-dimethyl-benzenesulfonamide], the IC50 in test [1] is below 0.1 µM; in test [2], 1 to 10 µM.

`COc1cc2c(cc1Nc1ncc(Cl)c(N[C@H]3[C@@H](C(N)=O)[C@@H]4C=C[C@H]3C4)n1)CCN(CC(=O)N1CCN(C)CC1)CC2` [Example 1539, (1S,2S,3R,4R)-3-(5-Chloro-2-{8-methoxy-3-[2-(4-methyl-piperazin-1-yl)-2-oxo-ethyl]-2,3,4,5-tetrahydro-1H-3-benzazepin-7-ylamino}-pyrimidin-4-ylamino)-bicyclo[2.2.1]hept-5-ene-2-carboxylic acid amide]: the IC50 in test [1] is below 0.1 µM; in test [2] it was above 10 µM.

`COc1cc2c(cc1Nc1ncc(Cl)c(Nc3ccc(N(C)C)cc3OC)n1)CCN(CC(=O)N1CCN(C)CC1)CC2` [Example 1540, 2-{7-[5-Chloro-4-(4-dimethylamino-2-methoxy-phenylamino)-pyrimidin-2-ylamino]-8-methoxy-1,2,4,5-tetrahydro-3-benzazepin-3-yl}-1-(4-methyl-piperazin-1-yl)-ethanone]: the results for the IC50 in test [1] and in test [2] were below 0.1 µM and above 10 µM, respectively.

On to `COc1cc2c(cc1Nc1ncc(Cl)c(Nc3ccccc3S(=O)(=O)C(C)C)n1)CCN(CC(=O)N1CCN(C)CC1)CC2` [Example 1541, 2-(7-{5-Chloro-4-[2-(propane-2-sulfonyl)-phenylamino]-pyrimidin-2-ylamino}-8-methoxy-1,2,4,5-tetrahydro-3-benzazepin-3-yl)-1-(4-methyl-piperazin-1-yl)-ethanone], for which the figures for the IC50 in test [1] and in test [2] were below 0.1 µM and above 10 µM, respectively.

As for `COc1cc2c(cc1Nc1ncc(Cl)c(Nc3ccccc3S(=O)(=O)N(C)C)n1)CCN(CCOC(=O)CN)CC2` [Example 1542, Amino-acetic acid 2-{7-[5-chloro-4-(2-dimethylsulfamoyl-phenylamino)-pyrimidin-2-ylamino]-8-methoxy-1,2,4,5-tetrahydro-benzo[d]azepin-3-yl}-ethyl ester], the IC50 in test [1] is below 0.1 µM; in test [2], 1 to 10 µM.

Regarding `COc1cc2c(cc1Nc1ncc(Cl)c(Nc3ccccc3S(=O)(=O)N3CCCC3)n1)CCN(CCO)CC2` [Example 1543, 2-(7-{5-Chloro-4-[2-(pyrrolidine-1-sulfonyl)-phenylamino]-pyrimidin-2-ylamino}-8-methoxy-1,2,4,5-tetrahydro-3-benzazepin-3-yl)-ethanol], the figures for the IC50 in test [1] and in test [2] were below 0.1 µM and 1 to 10 µM, respectively.

`COc1cc2c(cc1Nc1ncc(Cl)c(Nc3ccccc3S(=O)(=O)N(C)C)n1)CCN(CCOC(=O)[C@@H](N)C(C)C)CC2` [Example 1544, (S)-2-Amino-3-methyl-butyric acid 2-{7-[5-chloro-4-(2-dimethylsulfamoyl-phenylamino)-pyrimidin-2-ylamino]-8-methoxy-1,2,4,5-tetrahydro-3-benzazepin-3-yl}-ethyl ester]: the IC50 in test [1] was below 0.1 µM; in test [2], 1 to 10 µM.

In the case of `COc1cc2c(cc1Nc1ncc(Cl)c(Nc3ccccc3S(=O)(=O)N(C)C)n1)CCN(CCOP(=O)(O)O)CC2` [Example 1545, Phosphoric acid mono-(2-{7-[5-chloro-4-(2-dimethylsulfamoyl-phenylamino)-pyrimidin-2-ylamino]-8-methoxy-1,2,4,5-tetrahydro-3-benzazepin-3-yl}-ethyl)ester], the IC50 is below 0.1 µM in test [1] and 1 to 10 µM in test [2].

Turning to `CCC(=O)OCCN1CCc2cc(Nc3ncc(Cl)c(Nc4ccccc4S(=O)(=O)N(C)C)n3)c(OC)cc2CC1` [Example 1546, Propionic acid 2-{7-[5-chloro-4-(2-dimethylsulfamoyl-phenylamino)-pyrimidin-2-ylamino]-8-methoxy-1,2,4,5-tetrahydro-3-benzazepin-3-yl}-ethyl ester], the IC50 in test [1] is below 0.1 µM; in test [2] it was 1 to 10 µM.

`COc1cc2c(cc1Nc1ncc(Cl)c(Nc3ccccc3S(=O)(=O)N(C)C)n1)CCN(CC(C)O)CC2` (stereo not drawn) [Example 1547, 2-{5-Chloro-2-[3-(2-hydroxy-propyl)-8-methoxy-2,3,4,5-tetrahydro-1H-3-benzazepin-7-ylamino]-pyrimidin-4-ylamino}-N,N-dimethyl-benzenesulfonamide]: the IC50 was below 0.1 µM in test [1] and 1 to 10 µM in test [2].

Regarding `COc1cc2c(cc1Nc1ncc(Cl)c(N[C@H]3[C@@H](C(N)=O)[C@@H]4C=C[C@H]3C4)n1)CCN(CC(C)O)CC2` (stereo partly drawn) [Example 1548, (1S,2S,3R,4R)-3-{5-Chloro-2-[3-(2-hydroxy-propyl)-8-methoxy-2,3,4,5-tetrahydro-1H-3-benzazepin-7-ylamino]-pyrimidin-4-ylamino}-bicyclo[2.2.1]hept-5-ene-2-carboxylic acid amide], the IC50 in test [1] is below 0.1 µM; in test [2], above 10 µM.

Consider `COCCOC(=O)c1ccccc1Nc1nc(Nc2cc3c(cc2OC)CCN(CCO)CC3)ncc1Cl` [Example 1549, 2-{5-Chloro-2-[3-(2-hydroxy-ethyl)-8-methoxy-2,3,4,5-tetrahydro-1H-3-benzazepin-7-ylamino]-pyrimidin-4-ylamino}-benzoic acid 2-methoxy-ethyl ester], for which the IC50 is below 0.1 µM in test [1] and above 10 µM in test [2].

On to `COCCOC(=O)c1ccccc1Nc1nc(Nc2cc3c(cc2OC)CCN(CC(C)O)CC3)ncc1Cl` (stereo not drawn) [Example 1550, 2-{5-Chloro-2-[3-(2-hydroxy-propyl)-8-methoxy-2,3,4,5-tetrahydro-1H-3-benzazepin-7-ylamino]-pyrimidin-4-ylamino}-benzoic acid 2-methoxy-ethyl ester], for which the IC50 was below 0.1 µM in test [1] and above 10 µM in test [2].

For `COc1cc2c(cc1Nc1ncc(Cl)c(Nc3ccccc3S(=O)(=O)N3CCC(O)C3)n1)CCN(CCO)CC2` (stereo not drawn) [Example 1551, 1-(2-{5-Chloro-2-[3-(2-hydroxy-ethyl)-8-methoxy-2,3,4,5-tetrahydro-1H-3-benzazepin-7-ylamino]-pyrimidin-4-ylamino}-benzenesulfonyl)-pyrrolidin-3-ol], the IC50 is below 0.1 µM in test [1] and 0.1 to 1 µM in test [2].

With `COc1cc2c(cc1Nc1ncc(Cl)c(Nc3ccccc3S(=O)(=O)N3CCC(O)C3)n1)CCN(CC(C)O)CC2` (stereo not drawn) [Example 1552, 1-(2-{5-Chloro-2-[3-(2-hydroxy-propyl)-8-methoxy-2,3,4,5-tetrahydro-1H-3-benzazepin-7-ylamino]-pyrimidin-4-ylamino}-benzenesulfonyl)-pyrrolidin-3-ol], the IC50 in test [1] was below 0.1 µM; in test [2] it was 1 to 10 µM.

In the case of `COc1cc2c(cc1Nc1ncc(Cl)c(Nc3ccccc3S(=O)(=O)N3CCCC3)n1)CCN(CC(C)O)CC2` (stereo not drawn) [Example 1553, 1-(7-{5-Chloro-4-[2-(pyrrolidine-1-sulfonyl)-phenylamino]-pyrimidin-2-ylamino}-8-methoxy-1,2,4,5-tetrahydro-3-benzazepin-3-yl)-propan-2-ol], the IC50 was below 0.1 µM in test [1] and 0.1 to 1 µM in test [2].

Take `COc1cc2c(cc1Nc1ncc(Cl)c(Nc3ccccc3S(=O)(=O)N3CC[C@@H](O)C3)n1)CCN(C[C@H](C)O)CC2` [Example 1554, (R)-1-(2-{5-Chloro-2-[3-((S)-2-hydroxy-propyl)-8-methoxy-2,3,4,5-tetrahydro-1H-3-benzazepin-7-ylamino]-pyrimidin-4-ylamino}-benzenesulfonyl)-pyrrolidin-3-ol]: the IC50 in test [1] is below 0.1 µM; in test [2], 0.1 to 1 µM.

As for `COc1cc2c(cc1Nc1ncc(Cl)c(Nc3ccccc3S(=O)(=O)N3CC[C@H](O)C3)n1)CCN(C[C@H](C)O)CC2` [Example 1555, (S)-1-(2-{5-Chloro-2-[3-((S)-2-hydroxy-propyl)-8-methoxy-2,3,4,5-tetrahydro-1H-3-benzazepin-7-ylamino]-pyrimidin-4-ylamino}-benzenesulfonyl)-pyrrolidin-3-ol], the results for the IC50 in test [1] and in test [2] were below 0.1 µM and 0.1 to 1 µM, respectively.

`COc1cc2c(cc1Nc1ncc(Cl)c(Nc3ccccc3S(=O)(=O)N3CC[C@H](O)C3)n1)CCN(C[C@@H](C)O)CC2` [Example 1556, (S)-1-(2-{5-Chloro-2-[3-((R)-2-hydroxy-propyl)-8-methoxy-2,3,4,5-tetrahydro-1H-3-benzazepin-7-ylamino]-pyrimidin-4-ylamino}-benzenesulfonyl)-pyrrolidin-3-ol]: the IC50 in test [1] was below 0.1 µM; in test [2] it was 1 to 10 µM.

Take `COc1cc2c(cc1Nc1ncc(Cl)c(Nc3ccccc3S(=O)(=O)N3CC[C@@H](O)C3)n1)CCN(C[C@@H](C)O)CC2` [Example 1557, (R)-1-(2-{5-Chloro-2-[3-((R)-2-hydroxy-propyl)-8-methoxy-2,3,4,5-tetrahydro-1H-3-benzazepin-7-ylamino]-pyrimidin-4-ylamino}-benzenesulfonyl)-pyrrolidin-3-ol]: the IC50 in test [1] is below 0.1 µM; in test [2], above 10 µM.

As for `COc1cc2c(cc1Nc1ncc(Cl)c(N[C@H]3[C@@H](C(N)=O)[C@@H]4C=C[C@H]3C4)n1)CCN(C[C@H](C)O)CC2` [Example 1558, (1S,2S,3R,4R)-3-{5-Chloro-2-[3-((S)-2-hydroxy-propyl)-8-methoxy-2,3,4,5-tetrahydro-1H-3-benzazepin-7-ylamino]-pyrimidin-4-ylamino}-bicyclo[2.2.1]hept-5-ene-2-carboxylic acid amide], the IC50 in test [1] was below 0.1 µM; in test [2], above 10 µM.
